Tests used:
C2C12 cells [1] = test: Change in muscle-related protein expression (primary antibodies) upon treatment with hydrangenol or Hydrangea extract; assay type: cell-based; conditions: C2C12 cells differentiated 5 days; Example 1 25 ug/ml or Example 2 2.5 ug/ml; 1 hour or 24 hours; FIG. 9
Method: Each sample obtained in Examples 1 and 2 was analyzed in regards to its effects on the change in protein expression involved in the prevention of muscle diseases, the improvement of muscle functions, and the promotion of motor performance. For this experiment, C2C12 cells were differentiated for 5 days and then treated with the sample of Example 1 (25 ug/ml) or Example 2 (2.5 ug/ml) for 1 hour or 24 hours, respectively. Then, the cell was broken down with a modified LIPA buffer, and 20 ug of each sample was used for analysis. The primary antibodies of p-ERK (9101S: Cell Signaling), p-mTOR (ab109268, Abcam), mTOR (2972, Cell Signaling), p-p70S6K (9234, Cell Signaling), p-AMPK (4186, Cell Signaling), PGC1a (ab54481, Abcam), and ß-actin (A5316, Sigma) were used for the analysis.

C2C12 cells [2] = test: Change in muscle-related gene expression (qRT-PCR) upon treatment with hydrangenol or Hydrangea extract; assay type: cell-based; conditions: C2C12 cells differentiated 5 days, 1 hour or 24 hours
Method: Each sample obtained in Examples 1 and 2 was analyzed in regards to its effects on the change in gene expression involved in the gain of muscle mass and the mitochondrial biogenesis and electron transport chain (ETC). For this experiment, C2C12 cells were differentiated for 5 days and then treated with the sample of Example 1 (25 μg/ml) or Example 2 (2.5 μg/ml) for 1 hour or 24 hours, respectively. Then, Trizol was used to extract RNA from the cell, and cDNA was synthesized from the RNA (cDNA synthesis kit, Bio-Rad). Finally, a realtime PCR (qRT-PCR) was performed (Viia7, […] Biosystems) using the oligomers of Table 1 as primers.
In the experimental example, the extract of Hydrangea serrata is indicated as S; the extract of Hydrangea macrophylla as M; and hydrangenol as H. “0” means a control that was treated with vehicle.

[3] = Example 1 25 μg/ml or Example 2 2.5 μg/ml, FIG. 8

O=C1OC(c2ccc(O)cc2)Cc2cccc(O)c21 (centres unmarked) [Example 2, 8-hydroxy-3-(4-hydroxyphenyl)-3,4-dihydroisochromen-1-one]
activity of p-AMPK (C2C12 cells [1]): increased
phosphorylation of ERK (MAPK) (C2C12 cells [1]): through the phosphorylation of ERK
phosphorylation of mTOR (C2C12 cells [1]): activated
protein expression of PGC1α (C2C12 cells [1]): increased
expression of Myogenin (C2C12 cells [2]; [3]): promoted
gene (mRNA) expression of PPARα (C2C12 cells [2]; [3]): increase
gene expression of MyoD (C2C12 cells [2]; [3]): promoted
gene expression of PGC1α (C2C12 cells [2]; [3]): activate
gene expression of PPARδ (C2C12 cells [2]; [3]): activate
gene expression of SIRT1 (C2C12 cells [2]; [3]): increased
amount of expression for most of genes shown in FIG. 8 (C2C12 cells [2]; Example 2 2.5 μg/ml): regulated
